Measurements published in PMC7279487, “Dual Target Ligands with 4-tert-Butylphenoxy Scaffold as Histamine H3 Receptor Antagonists and Monoamine Oxidase B Inhibitors” (International Journal of Molecular Sciences, 2020).

Key:
hMAO B [1] = target: T1, hMAO B (Homo sapiens, UniProt P27338); experiment: hMAO B inhibition, fluorometric Amplex Red MAO assay; format: biochemical; conditions: for IC50: mean ± SEM of 2-5 independent experiments, p-tyramine 200 μM
T1 construct: purchased Sigma Aldrich M7441
T1 sequence (P27338 1-520): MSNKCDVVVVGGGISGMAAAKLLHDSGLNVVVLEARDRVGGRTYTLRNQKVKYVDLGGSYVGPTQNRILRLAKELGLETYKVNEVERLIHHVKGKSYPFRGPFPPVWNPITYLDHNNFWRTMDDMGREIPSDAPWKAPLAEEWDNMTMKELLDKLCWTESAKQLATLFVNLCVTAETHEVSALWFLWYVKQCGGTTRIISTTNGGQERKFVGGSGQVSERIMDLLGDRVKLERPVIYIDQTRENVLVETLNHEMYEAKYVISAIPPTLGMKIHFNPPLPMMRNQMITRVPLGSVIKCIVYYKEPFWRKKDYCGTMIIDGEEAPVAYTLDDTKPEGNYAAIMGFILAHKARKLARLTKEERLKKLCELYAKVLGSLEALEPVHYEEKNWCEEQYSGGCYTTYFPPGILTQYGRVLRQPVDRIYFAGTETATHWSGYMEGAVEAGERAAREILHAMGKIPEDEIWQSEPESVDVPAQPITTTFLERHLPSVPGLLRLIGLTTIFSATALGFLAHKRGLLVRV

[2] = target: T2, human histamine H3 receptor (hH3R) (Homo sapiens, UniProt Q9Y5N1); experiment: radioligand displacement binding assay, [3H]Nα-methylhistamine, HEK293 cells stably expressing hH3R; conditions: HEK293 cells stably expressing human H3R, mean (95% CI)
T2 construct: expressed in transfected cells
Procedure: [^3H]N^α-methylhistamine was used as a radioligand.
The radioligand displacement binding assay was carried out in HEK-293 cells stably expressing the recombinant hH3R as described by Kottke et al. with slight modifications. […] Obtained data from at least three experiments (in at least duplicates) were analyzed with GraphPad Prism 6.1 (San Diego, CA, USA) using nonlinear regression (one-site competition on logarithmic scale), and Ki values were transformed from IC50 according to Cheng-Prusoff. Statistical analysis was performed on −log Ki values.

hMAO B [3] = target: T1, hMAO B; experiment: hMAO B reversibility studies; format: biochemical; conditions: inhibitor at IC80; for effect of 30 min preincubation with enzyme on hMAO B inhibition: with vs without preincubation; for type of hMAO B inhibition (reversible or irreversible): without preincubation, compared with safinamide and rasagiline
Procedure: Reversibility of MAO B inhibitors was tested as described previously with slight modification. Two experiments were performed simultaneously. In the first experiment, inhibitors (in concentrations corresponding to their IC80 values) were incubated with the enzyme and p-tyramine (10 μM) for 22 min (measuring fluorescence every two minutes).

human MAO A = target: T3, human MAO A (Homo sapiens, UniProt P21397); experiment: hMAO A inhibition, fluorometric Amplex Red MAO assay; format: biochemical; conditions: for IC50: mean ± SEM, p-tyramine 200 μM; for inhibition at 10 µM: percent of inhibition at 10 μM, mean of two independent experiments, read-out: MAO A (%Inh.)
T3 construct: purchased Sigma Aldrich M7316
T3 sequence (P21397 1-527): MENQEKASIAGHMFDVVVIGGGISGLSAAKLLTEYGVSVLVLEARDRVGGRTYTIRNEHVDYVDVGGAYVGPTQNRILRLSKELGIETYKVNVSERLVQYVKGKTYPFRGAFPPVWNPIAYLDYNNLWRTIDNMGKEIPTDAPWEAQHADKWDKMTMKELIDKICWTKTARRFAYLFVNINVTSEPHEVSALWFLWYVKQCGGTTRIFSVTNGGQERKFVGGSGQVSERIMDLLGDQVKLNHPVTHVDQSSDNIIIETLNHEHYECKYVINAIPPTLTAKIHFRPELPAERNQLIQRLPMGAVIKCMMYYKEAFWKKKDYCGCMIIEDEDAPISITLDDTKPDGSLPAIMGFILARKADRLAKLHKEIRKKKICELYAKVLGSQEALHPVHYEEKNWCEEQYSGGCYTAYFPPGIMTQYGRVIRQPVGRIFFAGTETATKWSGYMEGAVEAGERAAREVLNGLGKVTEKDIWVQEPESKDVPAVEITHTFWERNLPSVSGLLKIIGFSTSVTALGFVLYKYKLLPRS
Procedure: Inhibitory potency of compounds on MAO isoenzymes were carried out by a fluorometric method with a commercial Amplex™ Red Monoamine Oxidase Assay Kit (ThermoFisher Scientific A12214, Waltham, MA, USA) as described previously. For all tests, recombinant human MAO B and MAO A (from Sigma AldrichM7441 and M7316, Darmstadt, Germany) were used. Inhibitors’ activity was measured in the presence of p-tyramine (200 μM).
[…] […] All calculations were made in Microsoft Excel and GraphPadPrism software. All experiments were performed in duplicate, and data are expressed as mean ± SEM of 2–5 independent experiments.

hH3R = conditions: read-out: hH3R Ki; cited from earlier work
hMAO B [4] = target: T1, hMAO B; experiment: hMAO B kinetic studies (Michaelis-Menten, Lineweaver-Burk); format: biochemical
Procedure: Results from the kinetic experiment were used for determination of Michaelis–Menten curves (Figure 4A,C). […] From Michaelis–Menten curves, Vmax and KM values were fitted (Table 2). For both compounds, Vmax values decreased curvilinearly and KM values increased curvilinearly with the increased inhibitor concentrations.
The mode of the inhibition was tested according to the standard procedure described in Reversibility Studies using different concentrations of the substrate. […] Substrate was used in six concentrations: […], 0.1 mM, 0.5 mM, 1 mM, 1.5 mM, and 2 mM. After the experiment, velocities were calculated and put on the graph (y-axis) against the concentration of the substrate (x-axis). From the Michaelis–Menten plot Vmax, KM, and α values were calculated for different concentrations of the inhibitor. Double-reciprocal plot (Lineweaver–Burk plot) were prepared to display the data.
The α values for different modes of reversible inhibition as well as their diagnostic signature on […]
The α value for compound 9 was calculated by GraphPad Prism software from the nonlinear regression curves using following equation for mixed- […]
v = Vmax*[S] / [S]*(1+ [I]/ αKi) + KM*(1+ [I]/Ki) (1) v – velocity of enzyme reaction. Vmax - maximum velocity (at infinite substrate concentration); Ki – dissociation constant for Enzyme-Inhibitor complex (in the enzymology literature other symbols can be used such as: Ki, Kii , KEI etc.); αKi – dissociation constant for Enzyme-Substrate-Inhibitor complex (in the literature also under the symbols: Ki’, Kis and KES); KM – Michaelis-Menten constant; [I]– concentration of the inhibitor; [S] – concentration of the substrate [Ref S1].
Table S1. Relation between inhibition modality, α value, and diagnostic signature on the double-reciprocal plots (i.e Lineweaver-Burk plot) [S2].
α Inhibition modality Diagnostic signature on […]
α = 1 (inhibitor binds to free enzyme lines converge at the x-axis and enzyme-substrate complex
(inhibitor can bind to free lines converge to the left of the α > 1 enzyme and enzyme-substrate y-axis and above the x-axis complex unequally), inhibitor’s affinity is higher for free enzyme
(inhibitor can bind to free
α < 1 enzyme and enzyme-substrate lines converge to the left of the complex unequally), inhibitor’s y-axis and below the x-axis affinity is higher for the enzyme- […]
α → ∞ (inhibitor and substrate compete lines converge at the y-axis for the same site of binding) […]
α → 0 and α > 0 (inhibitor binds only to the parallel lines

[5] = test system: neuroblastoma SH-SY5Y cells; experiment: neuroprotection in H2O2-treated SH-SY5Y cells (MTS); format: cell-based; conditions: 50 µM; H2O2 300 µM; 24 h
Procedure: The used reference cytostatic drug doxorubicin (DX) decreased cell viability <50% under the same conditions at very low concentrations of 0.2 and 0.05 µM. […] Oxidative damage was induced by very high toxic levels of hydrogen peroxide (H2O2; 300 µM), the popular cell model for PD research, in neuroblastoma SH-SY5Y cell line. […] Salsolinol (SAL) was used at a concentration of 50 µM as the reference compound with the proven neuroprotection activity.
SH-SY5Y cells were seeded in microplate at a concentration of 2.5 × 10^4 cells/well in 100 μL culture medium and cultured for 24 h at 37 C and 5% CO2 to reach 70% confluence. […] (R,S)-salsolinol (purity ≥ 99%) was obtained from Cayman Chemical (Ann Arbor, MI, USA). Next, H2O2 was added at final concentration 300 μM and the cells were placed into the incubator. After 24 h of compounds co-incubation with H2O2, the CellTiter 96®AQueous Non-Radioactive Cell Proliferation Assay (MTS) labeling mixture was added to each well, and the microplates were incubated under the same conditions for 5 h. The absorbance was measured using a microplate reader EnSpire (PerkinElmer, Waltham, MA USA) at 490 nm. All measurements were performed in triplicate, and results are shown as mean ± SD.

[6] = concentration used in kinetic studies

T2 sequence (Q9Y5N1 whole entry): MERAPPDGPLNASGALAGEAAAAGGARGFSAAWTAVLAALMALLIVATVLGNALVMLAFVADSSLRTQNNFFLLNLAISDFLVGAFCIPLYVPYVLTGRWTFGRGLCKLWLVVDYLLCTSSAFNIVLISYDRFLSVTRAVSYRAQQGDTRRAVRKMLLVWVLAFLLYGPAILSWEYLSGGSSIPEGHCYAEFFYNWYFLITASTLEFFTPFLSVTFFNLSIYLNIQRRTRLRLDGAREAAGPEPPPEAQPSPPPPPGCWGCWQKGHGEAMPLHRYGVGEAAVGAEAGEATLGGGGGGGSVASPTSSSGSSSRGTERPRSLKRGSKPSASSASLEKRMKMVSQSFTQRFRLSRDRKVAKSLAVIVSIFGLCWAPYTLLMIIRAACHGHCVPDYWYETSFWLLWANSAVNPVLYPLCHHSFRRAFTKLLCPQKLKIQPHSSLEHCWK

IC50 (hMAO B [1]) [µM] | melting point [°C] | Ki [2] [nM] | IC50 (human MAO A) [µM] | Compound | also measured
0.0027 ± 0.0004 | 147 to 149 | 371 | – | CC(C)(C)c1ccc(OCCCN2CCCC2)cc1.O=C(O)C(=O)O [Compound 5, 1-(3-(4-tert-Butylphenoxy)propyl)pyrrolidine hydrogen oxalate] | effect of 30 min preincubation with enzyme on hMAO B inhibition (hMAO B [3]): did not show differences between experiments with and without the preincubation; type of hMAO B inhibition (reversible or irreversible) (hMAO B [3]): reversible
0.476 ± 0.038 | 183 to 186 | 1620 | > 10 | CC1(C)CCCN(CCCOc2ccc(C(C)(C)C)cc2)C1.O=C(O)C(=O)O [Compound 16, 1-(3-(4-tert-Butylphenoxy)propyl)-3,3-dimethylpiperidine hydrogen oxalate] | –
0.29 ± 0.007 | 150 to 152 | 309 | > 10 | CC(C)(C)c1ccc(OCCCCN2CCCCC2)cc1.O=C(O)C(=O)O [Compound 6, 1-(4-(4-tert-Butylphenoxy)butyl)piperidine hydrogen oxalate] | –
0.117 ± 0.012 | 141 to 143 | 98 | > 10 | CC1CCCN(CCCOc2ccc(C(C)(C)C)cc2)C1.O=C(O)C(=O)O (stereo not shown) [Compound 12, 1-(3-(4-tert-Butylphenoxy)propyl)-3-methylpiperidine hydrogen oxalate] | –
– | 149 to 151 | 299 | > 10 | CC(C)(C)c1ccc(OCCCCN2CCCCCC2)cc1.O=C(O)C(=O)O [Compound 29, 1-(4-(4-tert-Butylphenoxy)butyl)-azepane hydrogen oxalate] | inhibition at 10 µM (human MAO A): 23%
0.045 ± 0.004 | 138 to 140 | 111 | > 10 | CC(C)(C)c1ccc(OCCCN2CCCCCC2)cc1.O=C(O)C(=O)O [Compound 28, 1-(3-(4-tert-Butylphenoxy)propyl)-azepane hydrogen oxalate] | –
– | 150 to 153 | 3540 | > 10 | CC1(C)CCCN(CCCCCOc2ccc(C(C)(C)C)cc2)C1.O=C(O)C(=O)O [Compound 18, 1-(5-(4-tert-Butylphenoxy)pentyl)-3,3-dimethylpiperidine hydrogen oxalate] | inhibition at 10 µM (human MAO A): 19%
– | – | – | – | CCC(C)(C)c1ccc(OCCCN2CCCC2)cc1 [Compound 3] | Ki (hH3R): 0.063 µM
0.011 ± 0.001 | 114 to 116 | 69 | > 10 | CC1CCCCN1CCCOc1ccc(C(C)(C)C)cc1.O=C(O)C(=O)O (stereo not shown) [Compound 9, 1-(3-(4-tert-Butylphenoxy)propyl)-2-methylpiperidine hydrogen oxalate] | IC20 (hMAO B [1]; [6]): 0.0002 µM; IC80 (hMAO B [1]; [6]): 0.04 µM; constant α (hMAO B [4]; calculated by GraphPad Prism from nonlinear regression, mixed-model inhibition): 1.6; mode of hMAO B inhibition (hMAO B [4]; from Vmax and KM behaviour and Lineweaver-Burk plot): mixed mode inhibition; Vmax (RFU/min) (hMAO B [4]; inhibitor concentration 0.2 nM): 1652 RFU/min; Vmax (RFU/min) (hMAO B [4]; inhibitor concentration 10 nM): 1544 RFU/min; Vmax (RFU/min) (hMAO B [4]; inhibitor concentration 40 nM): 1238 RFU/min; effect of 30 min preincubation with enzyme on hMAO B inhibition (hMAO B [3]): did not show differences between experiments with and without the preincubation; type of hMAO B inhibition (reversible or irreversible) (hMAO B [3]): reversible
– | – | – | – | C[C@H](NCc1ccc(OCc2cccc(F)c2)cc1)C(N)=O [safinamide, reference compound] | effect of 30 min preincubation with enzyme on hMAO B inhibition (hMAO B [3]): did not show differences between experiments with and without the preincubation
– | – | – | – | O=C1/C(=C/c2ccc(OCCCN3CCCCC3)cc2)Cc2cc(OCc3ccc(Br)cc3)ccc21 [Compound 2] | Ki (hH3R): 0.0065 µM
– | – | – | – | CC1NCCc2cc(O)c(O)cc21 (racemic) [SAL, (R,S)-salsolinol, reference compound] | cell survival of H2O2-damaged SH-SY5Y cells (neuroprotection) [5]: statistically significant increased cells viability
– | – | – | – | C#CCNC1CCc2cc(OCCCN3CCCCC3)ccc21 (stereo not shown) [Compound 1] | Ki (hH3R): 0.0067 µM
0.475 ± 0.038 | 107 to 110 | 153 | > 10 | CC1CCCCN1CCCCOc1ccc(C(C)(C)C)cc1.O=C(O)C(=O)O (stereo not shown) [Compound 10, 1-(4-(4-tert-Butylphenoxy)butyl)-2-methylpiperidine hydrogen oxalate] | –
– | 122 to 125 | 2580 | > 10 | CC1(C)CCCN(CCCCCCOc2ccc(C(C)(C)C)cc2)C1.O=C(O)C(=O)O [Compound 19, 1-(6-(4-tert-Butylphenoxy)hexyl)-3,3-dimethylpiperidine hydrogen oxalate] | inhibition at 10 µM (human MAO A): 24%
